Experimental data reported in PubChem BioAssay AID192 (DTP/NCI, 2004).
Inconclusive results and toxic doses are left out. How the source made its calls: active means survival T/C of 150% or more; inactive means T/C below 125% in these data. Square brackets hold non-standard residues; d marks the D form. Peptide text beside a SMILES is read from it. * marks the point of attachment. Nle = CCCC[CH](N)C(=O)O; Cbz = O=C(OCc1ccccc1)*

Test system: BDF1 mice, B16 melanoma ip, median survival T/C
Assay: NCI In Vivo Anticancer Drug Screen. Data for tumor model B16 Melanoma (intraperitoneal) in B6D2F1 (BDF1) mice
Conditions: endpoint: median survival time, higher = longer survival
In short: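 Transplantable tumor model; survival or tumor size measured; reported as T/C, treated over vehicle control.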

[1] = dose: 12.5 mg/kg/injection, schedule: Q01DX009 (ip), vehicle: Klucel (hydroxypropylcellulose) (HPC)
[2] = dose: 25.0 mg/kg/injection, schedule: Q01DX009 (ip), vehicle: Klucel (hydroxypropylcellulose) (HPC)
[3] = dose: 100.0 mg/kg/injection, schedule: Q01DX009 (ip), vehicle: saline with Tween-80
[4] = dose: 200.0 mg/kg/injection, schedule: Q01DX009 (ip), vehicle: saline with Tween-80
[5] = dose: 100.0 mg/kg/injection, schedule: Q04DX003 (ip), vehicle: Klucel (hydroxypropylcellulose) (HPC)
[6] = dose: 200.0 mg/kg/injection, schedule: Q04DX003 (ip), vehicle: Klucel (hydroxypropylcellulose) (HPC)
[7] = dose: 400.0 mg/kg/injection, schedule: Q04DX003 (ip), vehicle: Klucel (hydroxypropylcellulose) (HPC)
[8] = dose: 50.0 mg/kg/injection, schedule: Q01DX009 (ip), vehicle: saline with Tween-80

Measured: T/C

CCOC(=O)/C(C(C)=O)=C(/O)c1ccc(OC(F)(F)C(F)Cl)cc1OC(F)(F)C(F)Cl.CCOC(=O)/C(C(C)=O)=C(/O)c1ccc(OC(F)(F)C(F)Cl)cc1OC(F)(F)C(F)Cl.[Cu] (configuration not stated)
inactive: [1] 89 % of control | [2] 88 % of control

CC1C2CC3C(OC(=O)C13)C2I (configuration not stated)
inactive: [3] 107 % of control | [4] 89 % of control

CCC(C)C(C)(COC(N)=O)COC(N)=O (configuration not stated)
inactive: [5] 97 % of control | [6] 102 % of control | [7] 105 % of control

O=C(OCCOCCN1CCCCC1)N1c2ccccc2Sc2cccnc21
inactive: dose: 3.12 mg/kg/injection, schedule: Q01DX009 (ip), vehicle: saline 100 % of control | dose: 12.5 mg/kg/injection, schedule: Q01DX009 (ip), vehicle: saline 100 % of control | dose: 25.0 mg/kg/injection, schedule: Q01DX009 (ip), vehicle: saline 102 % of control

CCc1nc(N)nc(N)c1-c1ccc(Cl)c(Cl)c1.[Cl][Pd][Cl]
inactive: dose: 6.25 mg/kg/injection, schedule: Q01DX009 (ip), vehicle: saline 97 % of control

O=C(O)C(CSC(c1ccccc1)c1ccccc1)NC(=O)C(c1ccccc1)c1ccccc1 (configuration not stated)
inactive: [5] 102 % of control | [6] 105 % of control | [7] 92 % of control

COc1cc([C@@H]2c3cc4c(c(O)c3C[C@H]3COC(=O)[C@@H]32)OCO4)cc(OC)c1OC
inactive: dose: 0.12 mg/kg/injection, schedule: Q01DX009 (ip), vehicle: suspension in saline 100 % of control | dose: 0.25 mg/kg/injection, schedule: Q01DX009 (ip), vehicle: suspension in saline 102 % of control | dose: 0.5 mg/kg/injection, schedule: Q01DX009 (ip), vehicle: saline 109 % of control | dose: 0.5 mg/kg/injection, schedule: Q01DX009 (ip), vehicle: suspension in saline 120 % of control | dose: 1.0 mg/kg/injection, schedule: Q01DX009 (ip), vehicle: saline 114 % of control | dose: 1.0 mg/kg/injection, schedule: Q01DX009 (ip), vehicle: suspension in saline 121 % of control

CCOC(=O)CC(C)(N)NC(N)=O (configuration not stated)
inactive: [3] 92 % of control | [4] 95 % of control | dose: 400.0 mg/kg/injection, schedule: Q01DX009 (ip), vehicle: saline with Tween-80 90 % of control

C=C1C(=O)OC2C1CCC(=C)C1CC(O)C(=C)C12 (configuration not stated)
inactive: dose: 67.0 mg/kg/injection, schedule: Q01DX009 (ip), vehicle: saline with Tween-80 87 % of control | [3] 87 % of control

COc1nc(NC(C)C)nc(NC(C)C)n1
inactive: [8] 102 % of control | dose: 66.0 mg/kg/injection, schedule: Q01DX009 (ip), vehicle: saline with Tween-80 93 % of control | [3] 86 % of control | dose: 150.0 mg/kg/injection, schedule: Q01DX009 (ip), vehicle: saline with Tween-80 97 % of control | [4] 105 % of control

O=[N+]([O-])c1ccc([I+]c2ccccc2)cc1
inactive: [1] 115 % of control | dose: 12.5 mg/kg/injection, schedule: Q01DX009 (ip), vehicle: saline with Tween-80 113 % of control | [2] 118 % of control | dose: 25.0 mg/kg/injection, schedule: Q01DX009 (ip), vehicle: saline with Tween-80 112 % of control

N/C(=N\N=C\c1ccc(-c2ccccc2)cc1)N[N+](=O)[O-]
inactive: [2] 93 % of control | dose: 50.0 mg/kg/injection, schedule: Q01DX009 (ip), vehicle: Klucel (hydroxypropylcellulose) (HPC) 90 % of control | dose: 100.0 mg/kg/injection, schedule: Q01DX009 (ip), vehicle: Klucel (hydroxypropylcellulose) (HPC) 93 % of control | dose: 200.0 mg/kg/injection, schedule: Q01DX009 (ip), vehicle: Klucel (hydroxypropylcellulose) (HPC) 86 % of control

CCCCC(NC(=O)C(Cc1ccccc1)NC(=O)OCc1ccccc1)C(=O)O (stereo not drawn) (Cbz-Phe-[Nle]-OH; configuration not given here)
inactive: [8] 92 % of control | [3] 100 % of control

CC(=O)Oc1ccc(OC(C)=O)c2c1C(=O)C=CC2=O
inactive: dose: 0.5 mg/kg/injection, schedule: Q01DX009 (ip), vehicle: Klucel (hydroxypropylcellulose) (HPC) 86 % of control | dose: 1.0 mg/kg/injection, schedule: Q01DX009 (ip), vehicle: Klucel (hydroxypropylcellulose) (HPC) 88 % of control
